# Assay results as given in paper PMC3880318, “Green Tea and One of Its Constituents, Epigallocatechine-3-gallate, Are Potent Inhibitors of Human 11β-hydroxysteroid Dehydrogenase Type 1” (PLoS ONE, 2014).
# “And” between values parts separate entries of the source, which are not always exact repeats. Equal entries are not always repeated. “Also recorded” adds a separate entry of the source. Where two headings read alike, the source gives them in different places.
# Experiments:
# [1] = target: T1, human microsomal 11β-HSD1 (Homo sapiens, UniProt P28845); assay: Inhibition of cortisone reduction (11β-HSD1 reductase activity) in human liver microsomes, cortisol quantified by HPLC; conditions: for IC50: IC50, inhibition of cortisone reduction
# Experimental: (§1) In terms of 11β-HSD1 reductase activity, inhibition analysis was performed as follows: 50 µl of tea extract were added to a mixture containing 400 µM cortisone, 0.8 mM NADPH solution in 100 mM phosphate buffer pH 7.4. […] The total assay volume was 250 µl.
# (§2) The reaction was stopped by adding 250 µl ice-cold ethylacetate and vortexing, followed by a 30 sec centrifugation at 13,000 RPM in a microcentrifuge. The organic phase was separated and the aqueous phase extracted two more times with 250 µl ethylacetate. The ethylacetate phases were combined and the solvent was removed in a SpeedVac (ThermoSavant). The resulting residue was dissolved in 150 µl methanol-water (58∶42, v/v) and used for metabolite quantification by HPLC.
# (§3) Product yield was quantified by peak integration of the cortisone and cortisol peaks, respectively.
# (§4) The data obtained were plotted as substrate-velocity curves and analyzed by nonlinear-regression.
# [2] = target: T1, human microsomal 11β-HSD1; assay: biochemical
# Experimental: as §1, §2, §3, §4
# [3] = target: T2, purified 11β-HSD1 (Homo sapiens, UniProt P28845); assay: Western Blot analysis for EGCG-induced 11β-HSD1 aggregate formation; conditions: preincubation 3 h at 37°C, up to 100 µM
# T2 construct: from tissue; host or cells: human liver
# Experimental: To exclude EGCG-induced 11β-HSD1 aggregate formation, purified 11β-HSD1 (2.14 µg) was preincubated with 25–100 µM EGCG (3 h at 37°C) and then prepared for sodium dodecyl sulfate polyacrylamide gel electrophoresis (SDS-PAGE) according to the manufacturer's protocol. As a control, the same volume of untreated purified protein was loaded onto the parallel lane.
# The resolved proteins were transferred to nitrocellulose membranes. After blocking the membrane for 1 h at RT with 5% non-fat dry milkpowder in PBS-buffer, the blocking solution was replaced by the primary antibody at a 1∶2,000 dilution and the membrane was incubated at 4°C for about 16 h. Primary and secondary antibodies were diluted in PBS containing 2.5% non-fat dry milkpowder. The membrane was washed three times and then the corresponding secondary antibody was added at a dilution of 1∶10,000. After a 1.5 h incubation at RT the membrane was washed three times and the specific Western blot signals of 11β-HSD1 were detected by the ECL Western Blotting System according to the manufacturer's instructions.
# [4] = target: T2, purified 11β-HSD1; assay: Inhibition of cortisone reduction by purified human 11β-HSD1; type: biochemical
# Experimental: The total assay volume was 250 µl.
# [5] = target: T3, 11β-HSD1 in human liver microsomes (Homo sapiens, UniProt P28845); assay: Inhibition of cortisol oxidation (11β-HSD1 dehydrogenase activity) in human liver microsomes, HPLC; type: biochemical; conditions: pH 9.0, NADP
# T3 construct: The reaction was started by adding 5 µl of human liver microsomes (218 µg protein); from tissue; host or cells: human liver (microsomal fraction)
# Experimental: Here, the incubation time was 60 min at 37°C in a 100 mM phosphate buffer pH 9.0.
# [6] = read-out: inhibition of cortisone reduction
# T2 sequence (P28845 whole entry): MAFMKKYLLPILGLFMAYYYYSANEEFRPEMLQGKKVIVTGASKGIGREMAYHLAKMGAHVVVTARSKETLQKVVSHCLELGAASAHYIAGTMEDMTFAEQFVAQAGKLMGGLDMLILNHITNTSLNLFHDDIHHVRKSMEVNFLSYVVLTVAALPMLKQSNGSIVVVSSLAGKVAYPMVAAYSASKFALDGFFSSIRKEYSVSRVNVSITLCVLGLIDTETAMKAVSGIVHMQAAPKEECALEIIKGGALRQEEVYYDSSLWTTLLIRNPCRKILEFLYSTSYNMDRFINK
# T1 sequence (P28845 whole entry): as above
# T3 sequence (P28845 whole entry): as above
smiles,measurement,setting,value
"Oc1cc(O)c2c(c1)O[C@H](c1cc(O)c(O)c(O)c1)[C@H](O)C2 [EGC, (−)-epigallocatechin]",inhibition at 200 µM,[1]; [6],~25%
"O=C(O[C@@H]1Cc2c(O)cc(O)cc2O[C@@H]1c1cc(O)c(O)c(O)c1)c1cc(O)c(O)c(O)c1 [EGCG, (−)-epigallocatechin-3-gallate]",Ki,[2],22.7 µM and 17.8 µM
same,IC50,"[1]; human liver microsomes, freshly prepared solution",58 µM
same,IC50,"[1]; stored solution, human liver microsomes, aqueous solution stored at −20°C for one week",26.9 µM
same,type of inhibition,"[1]; human liver microsomes, with respect to cortisone",mixed inhibition
same,inhibition at 100 µM,[1]; [6],~75%
same,protein aggregate formation,[3],did not induce protein aggregate formation
same,type of inhibition,"[4]; purified 11β-HSD1, with respect to cortisone",mixed inhibition; also recorded: mixed mode
same,Ki,"[4]; purified human 11β-HSD1, read-out: Ki (estimated by Dixon-plot) on cortisone reduction",20.9 µM
same,Ki,"[4]; purified human 11β-HSD1, read-out: Ki (non-linear regression) on cortisone reduction",18.7 µM
same,IC50,[5],131 µM
"Oc1cc(O)c2c(c1)O[C@@H](c1cc(O)c(O)c(O)c1)[C@H](O)C2 [GC, (−)-gallocatechin]",inhibition at 100 µM,[1]; [6],~53%
"OO [hydrogen peroxide, reference compound]",influence on cortisol production,"[1]; up to 300 µM, human liver microsomes",No 11β-HSD1 inhibition
same,influence on cortisol production,"[4]; up to 300 µM, purified human 11β-HSD1",No 11β-HSD1 inhibition
